# Literature values in patent publication US20030143247A1, “Antiviral compositions and methods for identification and use” (priority 2002, published 2003).
# Key:
# HCV = conditions: various clinical trials
# [1] = human, in vivo
# [2] = tested on: HIV viral RNA region within the Rev-binding site; conditions: Zapp et al., Cell 74, 1993
compound,measurement,setting,value
IFN-α,patients who initially responded to the therapy,HCV; patients treated with IFN-α,approximately 40%
same,initial responders who relapsed after the treatment ended,HCV; share of the initial responders,70%
"NC(=O)c1ncn([C@@H]2O[C@H](CO)[C@@H](O)[C@H]2O)n1 [ribavirin, 1-β-D-ribo-furanosyl-1,2,4-trizole-3-carboxamide]",side effect,[1],can cause hemolytic anemia
NC[C@@H]1O[C@H](O[C@H]2[C@@H](O)[C@H](O[C@@H]3[C@@H](O)[C@H](N)C[C@H](N)[C@H]3O[C@H]3O[C@H](CN)[C@@H](O)[C@H](O)[C@H]3N)O[C@@H]2CO)[C@H](N)[C@@H](O)[C@@H]1O [neomycin B],effect on Rev protein binding to HIV viral RNA,[2],blocks Rev protein binding
